# Patent US9024027B2, “Derivatives of 1-phenyl-2-pyridinyl alkyl alcohols as phosphodiesterase inhibitors” (Chiesi Farmaceutici S.p.A., priority 2011, dated 2015)
# Structures can show the parent of a compound that is named as a salt.
# Test system: LPS-induced TNF-α release in peripheral blood mononuclear cells (PBMCs)
# Assay: In vitro determination of PDE4 inhibitory activity in the PBMCs assay (LPS-induced TNF-α release)
# Format: cell-based
# Conditions: PBMC; human PBMCs, LPS 3 ng/ml, 18 hours; read-out: PDE4 inhibition (IC50, 50% inhibition of LPS-induced TNF-α release)
# Procedure: The assay, which is based on the known inhibitory activity exerted by PDE4 inhibitors on the lipopolyshaccarides (LPS)-induced tumour necrosis factor-alpha (TNF-α release in peripheral blood mononuclear cells (PBMCs), was performed according to a method previously described (Hatzelmann A et al., J. Pharmacol. Exp. Ther., 2001; 297:267-279; and Draheim R et al., J. Pharmacol. Exp. Ther., 2004; 308:555-563, both of which are incorporated herein by reference in their entireties. Cryopreserved human PBMCs, (100 μl/well) were incubated in 96-well plates (10^5 cells/well), for 30 minutes, in the presence or absence (50 microl) of the test compounds whose concentrations ranged from 10^−12 M to 10^−6 M or from 10^−13 M to 10^−7 M. Subsequently, LPS (3 ng/ml) was added. After 18 hours of incubation at 37° C. in a humidified incubator under an atmosphere of 95% air and 5% CO2, culture medium was collected and TNF-α measured by ELISA.
# The results of the tested compounds, representatives of the invention, expressed as mean±95% confidence limits of the molar concentration of the test compound producing 50% inhibition of LPS-induced TNF-α release (IC50) are shown in the following Table: […]
smiles,measurement,value
"CS(=O)(=O)N(CCN1CCOCC1)c1cccc2c1C(=O)N(CC(=O)O[C@@H](Cc1c(Cl)c[n+]([O-])cc1Cl)c1ccc(OC(F)F)c(OCC3CC3)c1)C2=O [Compound 176, (S)-3,5-dichloro-4-(2-(3-(cyclopropylmethoxy)-4-(difluoromethoxy)phenyl)-2-(2-(4-(N-(2-morpholinoethyl)methylsulfonamido)-1,3-dioxoisoindolin-2-yl)acetoxy)ethyl)pyridine 1-oxide 2,2,2-trifluoroacetic acid salt]",IC50,1 to 10 nM
"COc1ccc2c(c1)CC(=O)N2CC(=O)O[C@@H](Cc1c(Cl)c[n+]([O-])cc1Cl)c1ccc(OC(F)F)c(OCC2CC2)c1 [Compound 117, (S)-3,5-dichloro-4-(2-(3-(cyclopropylmethoxy)-4-(difluoromethoxy)phenyl)-2-(2-(5-methoxy-2-oxoindolin-1-yl)acetoxy)-ethyl)pyridine 1-oxide]",IC50,< 1 nM
"Nc1ccc2c(c1)C(=O)N(CC(=O)O[C@@H](Cc1c(Cl)c[n+]([O-])cc1Cl)c1ccc(OC(F)F)c(OCC3CC3)c1)C2 [Compound 9, (S)-4-(2-(2-(6-amino-1-oxoisoindolin-2-yl)acetoxy)-2-(3-(cyclopropylmethoxy)-4-(difluoromethoxy)phenyl)ethyl)-3,5-dichloropyridine 1-oxide]",IC50,1 to 10 nM
"O=C(Cn1ccc2ccccc21)O[C@@H](Cc1c(Cl)c[n+]([O-])cc1Cl)c1ccc(OC(F)F)c(OCC2CC2)c1 [Compound 14, (S)-4-(2-(2-(1H-indol-1-yl)acetoxy)-2-(3-(cyclopropylmethoxy)-4-(difluoromethoxy)phenyl)ethyl)-3,5-dichloropyridine 1-oxide]",IC50,< 1 nM
"CC1(C)c2ccccc2S(=O)(=O)N1CC(=O)O[C@@H](Cc1c(Cl)c[n+]([O-])cc1Cl)c1ccc(OC(F)F)c(OCC2CC2)c1 [Compound 35, (S)-3,5-dichloro-4-(2-(3-(cyclopropylmethoxy)-4-(difluoromethoxy)phenyl)-2-(2-(3,3-dimethyl-1,1-dioxidobenzo[d]isothiazol-2(3H)-yl)acetoxy)ethyl)pyridine 1-oxide]",IC50,1 to 10 nM
"O=C(CN1C(=O)c2ccccc2C1=O)O[C@@H](Cc1c(Cl)c[n+]([O-])cc1Cl)c1ccc(OC(F)F)c(OC2CCOC2)c1 (stereo partly drawn) [Compound 261, 3,5-dichloro-4-((2S)-2-(4-(difluoromethoxy)-3-(tetrahydrofuran-3-yloxy)phenyl)-2-(2-(1,3-dioxoisoindolin-2-yl)acetoxy)-ethyl)pyridine 1-oxide]",IC50,< 1 nM
"O=C(CN1C(=O)Cc2ccccc2C1=O)O[C@@H](Cc1c(Cl)c[n+]([O-])cc1Cl)c1ccc(OC(F)F)c(OCC2CC2)c1 [Compound 263, (S)-3,5-dichloro-4-(2-(3-(cyclopropylmethoxy)-4-(difluoromethoxy)phenyl)-2-(2-(1,3-dioxo-3,4-dihydroisoquinolin-2(1H)-yl)acetoxy)ethyl)pyridine 1-oxide]",IC50,1 to 10 nM
"O=C(CN1C(=O)C(=O)c2ccc(N3CCOCC3)cc21)O[C@@H](Cc1c(Cl)c[n+]([O-])cc1Cl)c1ccc(OC(F)F)c(OCC2CC2)c1 [Compound 142, (S)-3,5-dichloro-4-(2-(3-(cyclopropylmethoxy)-4-(difluoromethoxy)phenyl)-2-(2-(6-morpholino-2,3-dioxoindolin-1-yl)acetoxy)ethyl)pyridine 1-oxide]",IC50,1 to 10 nM
CSCCC(C(=O)OC(Cc1c(Cl)c[n+]([O-])cc1Cl)c1ccc(OC(F)F)c(OCC2CC2)c1)N1C(=O)c2ccccc2C1=O (stereo not shown) [Compound 15],IC50,< 1 nM
O=C(Cn1c(=O)[nH]c2ccccc2c1=O)O[C@@H](Cc1c(Cl)c[n+]([O-])cc1Cl)c1ccc(OC(F)F)c(OCC2CC2)c1 [Compound 30],IC50,< 1 nM
O=C(Cn1cnc2ccccc21)O[C@@H](Cc1c(Cl)c[n+]([O-])cc1Cl)c1ccc(OC(F)F)c(OCC2CC2)c1 [Compound 22],IC50,1 to 10 nM
"CS(=O)(=O)N(CCN1CCOCC1)c1cccc2c1ccn2CC(=O)O[C@@H](Cc1c(Cl)c[n+]([O-])cc1Cl)c1ccc(OC(F)F)c(OCC2CC2)c1 [Compound 233, (S)-3,5-dichloro-4-(2-(3-(cyclopropylmethoxy)-4-(difluoromethoxy)phenyl)-2-(2-(4-(N-(2-morpholinoethyl)methylsulfonamido)-1H-indol-1-yl)acetoxy)ethyl)pyridine 1-oxide]",IC50,1 to 10 nM
"COc1cc2c(cc1OC)CN(CC(=O)O[C@@H](Cc1c(Cl)c[n+]([O-])cc1Cl)c1ccc(OC(F)F)c(OCC3CC3)c1)CC2 [Compound 105, (S)-3,5-dichloro-4-(2-(3-(cyclopropylmethoxy)-4-(difluoromethoxy)phenyl)-2-(2-(6,7-dimethoxy-3,4-dihydroisoquinolin-2(1H)-yl)acetoxy)ethyl)pyridine 1-oxide]",IC50,< 1 nM
"COc1cc2c(cc1OC)C(=O)N(CC(=O)O[C@@H](Cc1c(Cl)c[n+]([O-])cc1Cl)c1ccc(OC(F)F)c(OCC3CC3)c1)C2=O [Compound 156, (S)-3,5-dichloro-4-(2-(3-(cyclopropylmethoxy)-4-(difluoromethoxy)phenyl)-2-(2-(5,6-dimethoxy-1,3-dioxoisoindolin-2-yl)acetoxy)ethyl)pyridine 1-oxide]",IC50,< 1 nM
"CS(=O)(=O)Nc1cccc2c1ccn2CC(=O)O[C@@H](Cc1c(Cl)c[n+]([O-])cc1Cl)c1ccc(OC(F)F)c(OCC2CC2)c1 [Compound 84, (S)-3,5-dichloro-4-(2-(3-(cyclopropylmethoxy)-4-(difluoromethoxy)phenyl)-2-(2-(4-(methylsulfonamido)-1H-indol-1-yl)acetoxy)-ethyl)pyridine 1-oxide]",IC50,< 1 nM
"O=C(Cn1ccc2cc(O)ccc21)O[C@@H](Cc1c(Cl)c[n+]([O-])cc1Cl)c1ccc(OC(F)F)c(OCC2CC2)c1 [Compound 42, (S)-3,5-dichloro-4-(2-(3-(cyclopropylmethoxy)-4-(difluoromethoxy)phenyl)-2-(2-(5-hydroxy-1H-indol-1-yl)acetoxy)ethyl)pyridine 1-oxide]",IC50,< 1 nM
"CS(=O)(=O)Nc1ccc2c(c1)CC(=O)N2CC(=O)O[C@@H](Cc1c(Cl)c[n+]([O-])cc1Cl)c1ccc(OC(F)F)c(OCC2CC2)c1 [Compound 112, (S)-3,5-dichloro-4-(2-(3-(cyclopropylmethoxy)-4-(difluoromethoxy)phenyl)-2-(2-(5-(methylsulfonamido)-2-oxoindolin-1-yl)acetoxy)ethyl)pyridine 1-oxide]",IC50,< 1 nM
"CS(=O)(=O)N(CCN1CCCCC1)c1ccc2c(c1)C(=O)N(CC(=O)O[C@@H](Cc1c(Cl)c[n+]([O-])cc1Cl)c1ccc(OC(F)F)c(OCC3CC3)c1)C2=O [Compound 189, (S)-3,5-dichloro-4-(2-(3-(cyclopropylmethoxy)-4-(difluoromethoxy)phenyl)-2-(2-(1,3-dioxo-5-(N-(2-(piperidin-1-yl)ethyl)methylsulfonamido)isoindolin-2-yl)acetoxy)ethyl)pyridine 1-oxide]",IC50,> 10 nM
CC(C(=O)OC(Cc1c(Cl)c[n+]([O-])cc1Cl)c1ccc(OC(F)F)c(OCC2CC2)c1)N1C(=O)c2ccccc2C1=O (stereo not shown) [Compound 18],IC50,< 1 nM
"O=C(CN1C(=O)c2ccccc2S1(=O)=O)O[C@@H](Cc1c(Cl)c[n+]([O-])cc1Cl)c1ccc(OC(F)F)c(OCC2CC2)c1 [Compound 102, (S)-3,5-dichloro-4-(2-(3-(cyclopropylmethoxy)-4-(difluoromethoxy)phenyl)-2-(2-(1,1-dioxido-3-oxobenzo[d]isothiazol-2(3H)-yl)acetoxy)ethyl)pyridine 1-oxide]",IC50,< 1 nM
O=C(CN1C(=O)c2cc(Cl)c(Cl)cc2C1=O)O[C@@H](Cc1c(Cl)c[n+]([O-])cc1Cl)c1ccc(OC(F)F)c(OCC2CC2)c1 [Compound 19],IC50,< 1 nM
"CS(=O)(=O)N(CCN1CCOCC1)c1ccc2c(c1)C(=O)N(CC(=O)O[C@@H](Cc1c(Cl)c[n+]([O-])cc1Cl)c1ccc(OC(F)F)c(OCC3CC3)c1)C2=O [Compound 182, (S)-3,5-dichloro-4-(2-(3-(cyclopropylmethoxy)-4-(difluoromethoxy)phenyl)-2-(2-(5-(N-(2-morpholinoethyl)methylsulfonamido)-1,3-dioxoisoindolin-2-yl)acetoxy)ethyl)pyridine 1-oxide 2,2,2 trifluoroacetic acid salt]",IC50,< 1 nM
"CS(=O)(=O)Nc1cccc2c1C(=O)N(CC(=O)O[C@@H](Cc1c(Cl)c[n+]([O-])cc1Cl)c1ccc(OC(F)F)c(OCC3CC3)c1)C2=O [Compound 162, (S)-3,5-dichloro-4-(2-(3-(cyclopropylmethoxy)-4-(difluoromethoxy)phenyl)-2-(2-(4-(methylsulfonamido)-1,3-dioxoisoindolin-2-yl)acetoxy)ethyl)pyridine 1-oxide]",IC50,< 1 nM
"CS(=O)(=O)N(CCN1CCOCC1)c1ccc2c(ccn2CC(=O)O[C@@H](Cc2c(Cl)c[n+]([O-])cc2Cl)c2ccc(OC(F)F)c(OCC3CC3)c2)c1 [Compound 230, (S)-3,5-dichloro-4-(2-(3-(cyclopropylmethoxy)-4-(difluoromethoxy)phenyl)-2-(2-(5-(N-(2-morpholinoethyl)methylsulfonamido)-1H-indol-1-yl)acetoxy)ethyl)pyridine 1-oxide hydrochloride]",IC50,< 1 nM
"COc1cccc2c1C(=O)N(CC(=O)O[C@@H](Cc1c(Cl)c[n+]([O-])cc1Cl)c1ccc(OC(F)F)c(OCC3CC3)c1)C2=O [Compound 68, (S)-3,5-dichloro-4-(2-(3-(cyclopropylmethoxy)-4-(difluoromethoxy)phenyl)-2-(2-(4-methoxy-1,3-dioxoisoindolin-2-yl)acetoxy)-ethyl)pyridine 1-oxide]",IC50,< 1 nM
